Assay results: patent US9273058B2 (BRISTOL-MYERS SQUIBB COMPANY, priority 2013, dated 2016)

Experiments:
[1] = molecular target: CK1δ (Homo sapiens, UniProt P48730); assay: CK1δ kinase assay (Caliper LabChip electrophoretic separation of fluoresceinated peptide substrate and product); type: biochemical; details: 200 pM CK1δ, 50 μM ATP, 1.5 μM peptide, 22 hours at room temperature; read-out: CK1δ IC50 range
Procedure, shortened: (§1)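 Each reaction was incubated 22 hours at room temperature and terminated with EDTA. Read-out was microfluidic electrophoretic separation of fluoresceinated substrate and phospho-product.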

[2] = molecular target: CK1ε (Homo sapiens, UniProt P49674); assay: CK1ε kinase assay (Caliper LabChip electrophoretic separation of fluoresceinated peptide substrate and product); type: biochemical; details: 200 pM CK1ε, 50 μM ATP, 1.5 μM peptide, 22 hours at room temperature; read-out: CK1ε IC50 range
Procedure, shortened: as §1

CK1δ, sequence (P48730 whole entry): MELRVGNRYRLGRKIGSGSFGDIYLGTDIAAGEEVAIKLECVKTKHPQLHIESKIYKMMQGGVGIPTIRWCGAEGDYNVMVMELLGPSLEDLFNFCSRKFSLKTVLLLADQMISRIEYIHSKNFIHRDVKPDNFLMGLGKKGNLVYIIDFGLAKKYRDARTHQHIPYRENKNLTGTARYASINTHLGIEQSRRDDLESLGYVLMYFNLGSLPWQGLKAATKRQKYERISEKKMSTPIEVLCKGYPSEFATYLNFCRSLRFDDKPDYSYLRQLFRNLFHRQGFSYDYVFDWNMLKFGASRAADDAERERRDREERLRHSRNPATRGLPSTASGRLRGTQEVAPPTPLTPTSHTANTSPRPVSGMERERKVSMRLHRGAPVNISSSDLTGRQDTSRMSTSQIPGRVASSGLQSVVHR
CK1ε, sequence (P49674 whole entry): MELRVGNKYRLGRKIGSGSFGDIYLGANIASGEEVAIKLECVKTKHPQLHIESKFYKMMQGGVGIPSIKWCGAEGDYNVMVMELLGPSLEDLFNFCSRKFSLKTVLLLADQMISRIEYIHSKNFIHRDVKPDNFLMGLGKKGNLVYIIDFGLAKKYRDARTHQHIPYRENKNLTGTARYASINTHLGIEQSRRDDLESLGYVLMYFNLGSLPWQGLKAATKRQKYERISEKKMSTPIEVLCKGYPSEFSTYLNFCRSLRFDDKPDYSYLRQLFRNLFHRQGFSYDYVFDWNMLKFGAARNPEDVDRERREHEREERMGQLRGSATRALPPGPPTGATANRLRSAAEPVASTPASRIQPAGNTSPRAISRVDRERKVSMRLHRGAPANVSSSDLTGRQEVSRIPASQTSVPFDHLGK

SMILES	IC50 [1]	IC50 [2]
CC1Cn2nc(-c3ccc(F)c(Cl)c3)c(C(N)=O)c2CN1C(=O)NC(C)(C)C (single isomer, unassigned) [Compound 341, N^5-(tert-Butyl)-2-(3-chloro-4-fluorophenyl)-6-methyl-6,7-dihydropyrazolo[1,5-a]pyrazine-3,5(4H)-dicarboxamide]	10 to 100 nM	0.01 to 10 nM
CC1Cn2nc(-c3ccc(F)c(Cl)c3)c(C(N)=O)c2CN1C(=O)NC1CC(F)(F)C1 (single isomer, unassigned) [Compound 343, 2-(3-Chloro-4-fluorophenyl)-N^5-(3,3-difluorocyclobutyl)-6-methyl-6,7-dihydropyrazolo[1,5-a]pyrazine-3,5(4H)-dicarboxamide]	0.01 to 10 nM	0.01 to 10 nM
NC(=O)c1c(-c2cccc(F)c2)nn2c1CN(C(=O)NC1CCC1)CC2 [Compound 8, N^5-Cyclobutyl-2-(3-fluorophenyl)-6,7-dihydropyrazolo[1,5-a]pyrazine-3,5(4H)-dicarboxamide]	10 to 100 nM	10 to 100 nM
C[C@H]1CN(C(=O)NC2CC(F)(F)C2)Cc2c(C(N)=O)c(-c3ccc(Cl)c(Cl)c3)nn21 [Compound A36, (S)-2-(3,4-Dichlorophenyl)-N^5-(3,3-difluorocyclobutyl)-7-methyl-6,7-dihydropyrazolo[1,5-c]pyrazine-3,5(4H)-dicarboxamide]	0.01 to 10 nM	0.01 to 10 nM
CC(C)(C)NC(=O)N1Cc2c(C(N)=O)c(-c3ccc(F)c(Cl)c3)nn2C2(CC2)C1 [Compound A132, N^5-(tert-Butyl)-2′-(3-chloro-4-fluorophenyl)-4′H-spiro[cyclopropane-1,7′-pyrazolo[1,5-a]pyrazine]-3′,5′(6′H)-dicarboxamide]	0.01 to 10 nM	0.01 to 10 nM
CC(C)(CO)NC(=O)N1CCn2nc(-c3ccc(F)c(Cl)c3)c(C(N)=O)c2C1 [Compound A48, 2-(3-Chloro-4-fluorophenyl)-N^5-(1-hydroxy-2-methylpropan-2-yl)-6,7-dihydropyrazolo[1,5-a] pyrazine-3,5(4H)-dicarboxamide]	0.01 to 10 nM	0.01 to 10 nM
NC(=O)c1c(-c2ccc(F)c(Cl)c2)nn2c1CN(C(=O)NC13CCC(C(F)F)(CC1)C3)CC2 [Compound A139, 2-(3-Chloro-4-fluorophenyl)-N^5-(4-(difluoromethyl)bicyclo[2.2.1]heptan-1-yl)-6,7-dihydropyrazolo[1,5-a]pyrazine-3,5(4H)-dicarboxamide]	0.01 to 10 nM	0.01 to 10 nM
CC(C)(NC(=O)N1CCn2nc(-c3ccc(F)c(Cl)c3)c(C(N)=O)c2C1)C1CC(F)(F)C1 [Compound 226, 2-(3-Chloro-4-fluorophenyl)-N^5-(2-(3,3-difluorocyclobutyl)propan-2-yl)-6,7-dihydropyrazolo[1,5-a]pyrazine-3,5(4H)-dicarboxamide]	0.01 to 10 nM	0.01 to 10 nM
NC(=O)c1c(-c2cccc(Cl)c2)nn2c1CN(C(=O)NC1(c3ccc(F)cc3)CC(F)(F)C1)CC2 [Compound 309, 2-(3-Chlorophenyl)-N^5-(3,3-difluoro-1-(4-fluorophenyl)cyclobutyl)-6,7-dihydropyrazolo[1,5-a] pyrazine-3,5(4H)-dicarboxamide]	0.01 to 10 nM	0.01 to 10 nM
NC(=O)c1c(-c2cccc(F)c2)nn2c1CN(C(=O)NC(CF)(CF)CF)CC2 [Compound A95, N^5-(1,3-Difluoro-2-(fluoromethyl)propan-2-yl)-2-(3-fluorophenyl)-6,7-dihydropyrazolo[1,5-a]pyrazine-3,5(4H)-dicarboxamide]	0.01 to 10 nM	10 to 100 nM
NC(=O)c1c(-c2ccc(Cl)c(Cl)c2)nn2c1CN(C(=O)NC1CC(F)(F)C1)C[C@H]2CF [Compound A29, (S)-2-(3,4-dichlorophenyl)-N^5-(3,3-difluorocyclobutyl)-7-(fluoromethyl)-6,7-dihydropyrazolo[1,5-a] pyrazine-3,5(4H)-dicarboxamide]	0.01 to 10 nM	0.01 to 10 nM
CC1(NC(=O)N2Cc3c(C(N)=O)c(-c4ccc(Cl)c(Cl)c4)nn3C(CF)C2)CC(F)(F)C1 (centres unmarked) [Compound A27, 2-(3,4-Dichlorophenyl)-N^5-(3,3-difluoro-1-methylcyclobutyl)-7-(fluoromethyl)-6,7-dihydropyrazolo[1,5-a]pyrazine-3,5(4H)-dicarboxamide]	0.01 to 10 nM	0.01 to 10 nM
NC(=O)c1c(-c2cccc(Cl)c2)nn2c1CN(C(=O)NC1(C(F)F)CCC1)CC2 [Compound 236, 2-(3-Chlorophenyl)-N^5-(1-(difluoromethyl)cyclobutyl)-6,7-dihydropyrazolo[1,5-a] pyrazine-3,5(4H)-dicarboxamide]	0.01 to 10 nM	0.01 to 10 nM
CC1CC(NC(=O)N2CCn3nc(-c4ccc(F)c(Cl)c4)c(C(N)=O)c3C2)C1 (single isomer, unassigned) [Compound 246, 2-(3-Chloro-4-fluorophenyl)-N^5-(3-methylcyclobutyl)-6,7-dihydropyrazolo[1,5-a]pyrazine-3,5(4H)-dicarboxamide]	0.01 to 10 nM	0.01 to 10 nM
NC(=O)c1c(-c2cccc(F)c2)nn2c1CN(C(=O)Nc1cccnn1)CC2 [Compound 91, 2-(3-Fluorophenyl)-N^5-(pyridazin-3-yl)-6,7-dihydropyrazolo[1,5-a]pyrazine-3,5(4H)-dicarboxamide]	10 to 100 nM	100 to 2000 nM
CC(C)(C)NC(=O)N1CCn2nc(-c3cccc(CNS(C)(=O)=O)c3)c(C(N)=O)c2C1 [Compound 135, N^5-(tert-Butyl)-2-(3-(methylsulfonamidomethyl)phenyl)-6,7-dihydropyrazolo [1,5-a]pyrazine-3,5(4H)-dicarboxamide]	100 to 2000 nM	100 to 2000 nM
CC1(NC(=O)N2CCn3nc(-c4ccc(Cl)c(Cl)c4)c(C(N)=O)c3C2)CC2(C1)CC2(F)F (single isomer, unassigned) [Compound 328, 2-(3,4-Dichlorophenyl)-N^5-(1,1-difluoro-5-methylspiro[2.3]hexan-5-yl)-6,7-dihydropyrazolo[1,5-a]pyrazine-3,5(4H)-dicarboxamide]	0.01 to 10 nM	0.01 to 10 nM
CS(=O)(=O)c1cccc(NC(=O)N2CCn3nc(-c4cccc(F)c4)c(C(N)=O)c3C2)c1 [Compound 93, 2-(3-Fluorophenyl)-N^5-(3-(methylsulfonyl)phenyl)-6,7-dihydropyrazolo[1,5-a]pyrazine-3,5(4H)-dicarboxamide]	0.01 to 10 nM	0.01 to 10 nM
CC(C)(C)NC(=O)N1Cc2c(C(N)=O)c(-c3cccc(Cl)c3)nn2C2(CC2)C1 [Compound A129, N^5-(tert-Butyl)-2′-(3-chlorophenyl)-4′H-spiro[cyclopropane-1,7′-pyrazolo[1,5-a]pyrazine]-3′,5′(6′H)-dicarboxamide]	0.01 to 10 nM	0.01 to 10 nM
CC1(NC(=O)N2CCn3nc(-c4ccc(F)c(Cl)c4)c(C(N)=O)c3C2)CC2(C1)CC2(F)F (single isomer, unassigned) [Compound 326, 2-(3-Chloro-4-fluorophenyl)-N5-(1,1-difluoro-5-methylspiro[2.3]hexan-5-yl)-6,7-dihydropyrazolo[1,5-a]pyrazine-3,5(4H)-dicarboxamide]	0.01 to 10 nM	0.01 to 10 nM
CC(C)(C)NC(=O)N1Cc2c(C(N)=O)c(-c3ccc(F)c(Cl)c3)nn2C(C(C)(C)C)C1 (centres unmarked) [Compound A118, N^5-7-Di-tert-butyl-2-(3-chloro-4-fluorophenyl)-6,7-dihydropyrazolo[1,5-a]pyrazine-3,5(4H)-dicarboxamide]	0.01 to 10 nM	0.01 to 10 nM
NC(=O)c1c(-c2ccc(Cl)c(Cl)c2)nn2c1CN(C(=O)NC1CC3(C1)CC3(F)F)CC2 (single isomer, unassigned) [Compound 324, 2-(3,4-Dichlorophenyl)-N^5-(1,1-difluorospiro[2.3]hexan-5-yl)-6,7-dihydropyrazolo[1,5-a]pyrazine-3,5(4H)-dicarboxamide]	0.01 to 10 nM	0.01 to 10 nM
COC12CCC(NC(=O)N3CCn4nc(-c5ccc(F)c(Cl)c5)c(C(N)=O)c4C3)(CC1)C(F)(F)C2 [Compound A61, 2-(3-Chloro-4-fluorophenyl)-N^5-(2,2-difluoro-4-methoxybicyclo[2.2.2]octan-1-yl)-6,7-dihydropyrazolo[1,5-a]pyrazine-3,5(4H)-dicarboxamide]	0.01 to 10 nM	0.01 to 10 nM
NC(=O)c1c(-c2ccc(F)c(Cl)c2)nn2c1CN(C(=O)NC1CCCC1)CC2C(F)F (centres unmarked) [Compound A12, 2-(3-Chloro-4-fluorophenyl)-N^5-cyclopentyl-7-(difluoromethyl)-6,7-dihydropyrazolo[1,5-a]pyrazine-3,5(4H)-dicarboxamide]	10 to 100 nM	0.01 to 10 nM
NC(=O)c1c(-c2ccc(F)c(Cl)c2)nn2c1CN(C(=O)NC(CF)(CF)CF)CC2 [Compound A49, 2-(3-Chloro-4-fluorophenyl)-N^5-(1,3-difluoro-2-(fluoromethyl)propan-2-yl)-6,7-dihydropyrazolo[1,5-a] pyrazine-3,5(4H)-dicarboxamide]	0.01 to 10 nM	0.01 to 10 nM
CC1(NC(=O)N2CCn3nc(-c4cccc(F)c4)c(C(N)=O)c3C2)CC1 [Compound 11, 2-(3-Fluorophenyl)-N^5-(1-methylcyclopropyl)-6,7-dihydropyrazolo[1,5-a]pyrazine-3,5(4H)-dicarboxamide]	10 to 100 nM	10 to 100 nM
NC(=O)c1c(-c2ccc(F)c(Cl)c2)nn2c1CN(C(=O)NC1CC3(C1)CC3(F)F)CC2 (single isomer, unassigned) [Compound 320, 2-(3-Chloro-4-fluorophenyl)-N^5-(1,1-difluorospiro[2.3]hexan-5-yl)-6,7-dihydropyrazolo[1,5-a]pyrazine-3,5(4H)-dicarboxamide]	0.01 to 10 nM	0.01 to 10 nM
CC(C)(C)NC(=O)N1CCn2nc(-c3cccnc3)c(C(N)=O)c2C1 [Compound 111, N^5-(tert-Butyl)-2-(pyridin-3-yl)-6,7-dihydropyrazolo[1,5-a]pyrazine-3,5(4H)-dicarboxamide]	100 to 2000 nM	100 to 2000 nM
